Data published in patent US4101537A, “Octapeptides and methods for their production” (Parke, Davis & Company, priority 1977, dated 1978).
Values joined by “and” are separate entries in the source; they are usually repeats but may differ in a detail not shown here. Equal values may be shown once.

Tested on: LRF (luteinizing hormone releasing factor) induced luteinizing hormone (LH) release
Experiment: LRF antagonist activity in vitro in rat anterior pituitary cell cultures
Assay type: cell-based
Conditions: LRF alone 3.5×10^-10 Molar (LRF Control)
Description: Octapeptides of this invention were screened for LRF antagonist activity in vitro using rat anterior pituitary cell cultures as described by Vale et. al. [Endocrinology, 91, 562 (1972)]. The inhibition of LRF (luteinizing hormone releasing factor) induced luteinizing hormone (LH) release into the culture medium is the endpoint in this in vitro bioassay.

For “LRF Control: luteinizing hormone releasing factor, the stimulus whose LH release the octapeptides inhibit; also called luteinizing hormone releasing hormone (QHWSYGLRPG; Gonadoliberin-1; UniProt P01148 24-33, looked up)”, the “LH Value” was 63.90 ng/mL and 64.13 ng/mL and 40.01 ng/mL.
